Assay results published in US10604555B2, “GIP derivatives and uses thereof” (priority 2018, dated 2020).
*1 amine or outer side, *2 acyl side, *3 side chain or, on linkers, in order; H or OH if unused. Where a SMILES comes first, the peptide text is derived from it. Where no end group is shown, it is not given here. Side-chain parts run from the residue outwards. [ ]: non-standard residue; d: D form. The star is where a group is joined. X1 = O=C(O)CCCCCCCCCCCCCCCCCCC(=O)NCC1CCC(C(=O)*)CC1; C18 diacid = O=C(O)CCCCCCCCCCCCCCCCC(=O)*; γGlu = O=C(O)[C@H](CCC(=O)[*:2])N[*:1]; Nle = CCCC[C@H](N)C(=O)O; AEEA = NCCOCCOCC(=O)O; Aib = CC(C)(N)C(=O)O

Assays:
Assay type in all cases: physicochemical
[1] = Chemical stability: HMWP formation by SEC-MS; conditions: 37° C., 4 weeks, 250 μM, pH 7.4
Description: The aim of this study is to determine the chemical stability of GIP derivative compositions. As a measure of stability of the GIP derivative composition, the formation of high molecular weight peptide formation (% HMWP) as a function of time was analysed by size-exclusion chromatography (SEC-MS). Further, the purity loss of the GIP derivative compositions was measured by LCMS. Samples for chemical stability assays were freshly prepared before each assay. […] The pH of the sample was adjusted to the desired value using appropriate amounts of concentrated NaOH and HCl. […] Formation of covalent oligomers (HMWPs) was analysed and identified by a SEC-MS method. […] The LC system was coupled to both a TUV detector operated at 215 nm, 10 Hz and a high resolution QToF mass spectrometer from Waters (Synapt G2S) operated in positive ion mode and m/z range of 100 to 4000 with normal resolution setting. Lock mass correction against Leu-Enkephalin was done every 31 sec. Spectra were processed in MassLynx version 4.1 and MaxEnt deconvoluted.

[2] = Chemical stability: purity loss by LCMS; conditions: 37° C., 4 weeks, 250 μM, pH 7.4
Description: The aim of this study is to determine the chemical stability of GIP derivative compositions. As a measure of stability of the GIP derivative composition, the formation of high molecular weight peptide formation (% HMWP) as a function of time was analysed by size-exclusion chromatography (SEC-MS). Further, the purity loss of the GIP derivative compositions was measured by LCMS. Samples for chemical stability assays were freshly prepared before each assay. […] The pH of the sample was adjusted to the desired value using appropriate amounts of concentrated NaOH and HCl. […] The column oven was kept at 55° C. […] The solvents were pumped from a binary solvent manager system and mixed on the high pressure side in a mixer with a volume of 50 μl. The gradient and flow can be seen in table 4: [table] A Flow-through-needle auto sampler at 8° C. was used to inject 1 μl of each sample. The effluent passed through a tunable UV detector (TUV) tuned to 215 nm. The outlet from the UV detector passed to the electrospray source of the mass spectrometer. The capillary was held at 3 kV and dry nitrogen gas was purged at a flow of 750 I/h and a temperature of 250° C. The source block was kept at 120° C. and the large bore cone was flushed with nitrogen at 50 I/h with standard electrode potentials on the rest of the instrument. The MS was operated in high resolution mode with a nominal resolution of 35000. The ToF analyser was operated in ADC mode with an m/z window from 100-2000.

[3] = Dynamic Light Scattering Stability Index (DLS-SI); conditions: 250 μM, pH 7.4, 4 weeks at 25° C.
[4] = ThT fibrillation assay (physical stability); conditions: 250 μM, pH 7.4, 37° C., 45 hours of incubation
Description: The Thioflavin T assay was performed as outlined in Schlein (2017), AAPS J, 19(2), 397-408.
This has traditionally been measured by visual inspection of the sample. However, that kind of measurement is very cumbersome and depending on the observer. Therefore, the application of a small molecule indicator probe is much more advantageous. Thioflavin T (ThT) is such a probe and has a distinct fluorescence signature when binding to fibrils [Naiki et al. (1989) Anal. Biochem. 177, 244-249; LeVine (1999) Methods. Enzymol. 309, 274-284].
The time course for fibril formation can be described by a sigmoidal curve with the following expression [Nielsen et al. (2001) Biochemistry 40, 6036-6046]:
Here, F is the ThT fluorescence at the time t. The constant t0 is the time needed to reach 50% of maximum fluorescence. The two important parameters describing fibril formation are the lag-time calculated by t0−2τ and the apparent rate constant kapp 1/τ.
Few of those intermediates nucleate to form a template onto which further intermediates may assembly and the fibrillation proceeds. The lag-time corresponds to the interval in which the critical mass of nucleus is built up and the apparent rate constant is the rate with which the fibril itself is formed.
Samples are prepared freshly before each assay. The drug substance was solved with 250 μM of the GIP derivative in 8 mM phosphate, 14 mg/mL propylene glycol, 58 mM phenol, pH 7.4. The pH of the sample was adjusted to the desired value using appropriate amounts of concentrated NaOH and HCl. Thioflavin T was added to the samples from a stock solution in H2O to a final concentration of 1 μM.
Sample aliquots of 200 μl were placed in each well of a 96 well microtiter plate (Packard OptiPlate™-96, white polystyrene). Four replica of each sample (corresponding to one test condition) was placed in one column of wells. The plate was sealed with Scotch Pad (Qiagen).
Incubation, shaking and measurement of the ThT fluorescence emission were done in a Fluoroskan Ascent FL fluorescence platereader (Thermo Labsystems). […] Fluorescence measurement was done using excitation through a 444 nm filter and measurement of emission through a 485 nm filter.
Each run was initiated by incubating the plate at the assay temperature for 10 min. The plate was measured every 20 minutes for a desired period of time. Between each measurement, the plate was shaken and heated as described.
After completion of the ThT assay the replica of each sample was pooled and centrifuged at 20000 rpm for 30 minutes at 18° C. The supernatant was filtered through a 0.22 μm filter and an aliquot was transferred to a HPLC vial. The concentration of the filtered sample relative to the initial sample (in percentage) was reported as the recovery.
The measurement points were saved in Microsoft Excel format for further processing and curve drawing and fitting was performed using GraphPad Prism. […] The data points were a mean of the four replica and shown with standard deviation error bars. Only data obtained in the same experiment (i.e. samples on the same plate) were presented in the same graph ensuring a relative measure of fibrillation between experiments.
The data set may be fitted to Eq. (1).

Compound | HMWP formation (%/month) [1] [%/month] | Purity loss (%/month) [2] [%/month] | DLS-SI Dimensionless [3] | DLS-SI precipitates [3] | ThT Assay Lag time [4] [h]
CCCC[C@H](NC(=O)[C@H](C)NC(=O)[C@@H](NC(=O)[C@H](CO)NC(=O)[C@H](Cc1ccc(O)cc1)NC(=O)[C@H](CC(=O)O)NC(=O)[C@H](CO)NC(=O)[C@@H](NC(=O)[C@H](Cc1ccccc1)NC(=O)[C@@H](NC(=O)CNC(=O)[C@H](CCC(=O)O)NC(=O)C(C)(C)NC(=O)[C@@H](N)Cc1ccc(O)cc1)[C@@H](C)O)[C@@H](C)CC)[C@@H](C)CC)C(=O)N[C@@H](CC(=O)O)C(=O)N[C@@H](CCCCN)C(=O)N[C@H](C(=O)N[C@@H](CCCNC(=N)N)C(=O)N[C@@H](CCC(N)=O)C(=O)N[C@@H](CCC(=O)O)C(=O)N[C@@H](CC(=O)O)C(=O)N[C@@H](Cc1ccccc1)C(=O)N[C@H](C(=O)N[C@@H](CCCCNC(=O)CC[C@H](NC(=O)CC[C@H](NC(=O)CC[C@H](NC(=O)C1CCC(CNC(=O)CCCCCCCCCCCCCCCCCCC(=O)O)CC1)C(=O)O)C(=O)O)C(=O)O)C(=O)N[C@@H](Cc1c[nH]c2ccccc12)C(=O)N[C@@H](CC(C)C)C(=O)N[C@@H](CC(C)C)C(=O)N[C@@H](C)C(=O)N[C@@H](CCC(N)=O)C(=O)N[C@@H](CCCCN)C(=O)NCC(=O)O)C(C)C)[C@@H](C)CC (stereo partly drawn) [Compound 10, N{Epsilon-24}-[(4S)-4-carboxy-4-[[(4S)-4-carboxy-4-[[(4S)-4-carboxy-4-[[4-[(19-carboxynonadecanoylamino)methyl]cyclohexanecarbonyl]amino]butanoyl]amino]-butanoyl]amino]butanoyl]-[Aib2,Nle14,Arg18,Glu20,Lys24]-hGIP(1-31)] (H-Y[Aib]EGTFISDYSIA[Nle]DKIRQEDFVK([γGlu-γGlu-γGlu-X1])WLLAQKG-OH; N-terminus and C-terminus assumed) | 1.50 | 4.80 | 1.7 | No | >45
CCCC[C@H](NC(=O)[C@H](C)NC(=O)[C@@H](NC(=O)[C@H](CO)NC(=O)[C@H](Cc1ccc(O)cc1)NC(=O)[C@H](CC(=O)O)NC(=O)[C@H](CO)NC(=O)[C@@H](NC(=O)[C@H](Cc1ccccc1)NC(=O)[C@@H](NC(=O)CNC(=O)[C@H](CCC(=O)O)NC(=O)C(C)(C)NC(=O)[C@@H](Cc1ccc(O)cc1)NC(C)=O)[C@@H](C)O)[C@@H](C)CC)[C@@H](C)CC)C(=O)N[C@@H](CC(=O)O)C(=O)N[C@@H](CCCCN)C(=O)N[C@H](C(=O)N[C@@H](Cc1c[nH]cn1)C(=O)N[C@@H](CCC(N)=O)C(=O)N[C@@H](CCC(N)=O)C(=O)N[C@@H](CC(=O)O)C(=O)N[C@@H](Cc1ccccc1)C(=O)N[C@H](C(=O)N[C@@H](CCCCNC(=O)CC[C@H](NC(=O)CC[C@H](NC(=O)CC[C@H](NC(=O)C1CCC(CNC(=O)CCCCCCCCCCCCCCCCCCC(=O)O)CC1)C(=O)O)C(=O)O)C(=O)O)C(=O)N[C@@H](Cc1c[nH]c2ccccc12)C(=O)N[C@@H](CC(C)C)C(=O)N[C@@H](CC(C)C)C(=O)N[C@@H](C)C(=O)N[C@@H](CCC(N)=O)C(=O)N[C@@H](CCCCN)C(=O)N1CCC[C@H]1C(N)=O)C(C)C)[C@@H](C)CC (stereo partly drawn) [Compound 32, N{1}-acetyl,N{Epsilon-24}-[(4S)-4-carboxy-4-[[(4S)-4-carboxy-4-[[(4S)-4-carboxy-4-[[4-[(19-carboxynonadecanoylamino)methyl]cyclohexanecarbonyl]amino]butanoyl]-amino]butanoyl]amino]butanoyl]-[D-Tyr1,Aib2,Nle14,Lys24,Pro31]-hGIP(1-31) amide] (Ac-[dY][Aib]EGTFISDYSIA[Nle]DKIHQQDFVK([γGlu-γGlu-γGlu-X1])WLLAQKP-NH2) | 0.66 | 2.80 | 1.7 | No | >45
Y[Aib]EGTFISDYSIALDKIHQQDFVK([AEEA-AEEA-γGlu-C18 diacid])WLLAQKGKKNDWKHNITQ [Compound 45, N{Epsilon-24}-[2-[2-[2-[[2-[2-[2-[[(4S)-4-carboxy-4-(17-carboxyheptadecanoylamino)butanoyl]amino]ethoxy]ethoxy]acetyl]amino]ethoxy]ethoxy]acetyl]-[Aib2,Leu14,Lys24]-hGIP] | 8.17 | 47.22 | 6.7 | No | >45
